SMILES strings stand for the structures.

In general, melting point refers to the temperature of the solid-liquid transition. `CCOC(=O)C(=CNc1ncnc2ccc(NS(C)(=O)=O)cc12)C(=O)OCC` returned a melting point of 200 to 202 °C.

Turning to `O=c1[nH]c2cc(Br)c3c(c2[nH]c1=O)CN(CCc1ccccc1)CC3`, the melting point lay in the range of 290 to 295 °C.

With `CCCN(CCC)Cc1cnc(-c2ncn3c2[C@@H]2CCN2C(=O)c2ccccc2-3)o1`, the melting point lay in the range of 132 to 134 °C.

`CCCN(CCC)C(=O)C(CCC(=O)N(C)C)NC(=O)C=Cc1ccco1` (centres undefined) returned a melting point of 114 to 116 °C.

For `CN(C)C=C1C[N+]([O-])=C(c2ccccc2Cl)c2cc(Cl)ccc2C1=O`, the melting point is 196 to 198 °C.

Regarding `FC(F)(F)c1ccc(-n2ccc3c(Cl)nccc32)c(Cl)c1`, the melting point was in the range of 133 to 135 °C.

Regarding `CCOC(=O)N1CCN(c2nn(-c3ccc(C(F)(F)F)cc3)c3ccccc23)CC1`, the melting point lay within 123 to 126 °C.

Regarding `CCOC(=O)c1cc2cc(Oc3ccc(S(C)(=O)=O)nc3)cc(CC)c2[nH]1`, the melting point is 140 to 141 °C.

In turn, `c1ccc(CSc2nc3cnccn3n2)cc1` showed a melting point of 93 to 94 °C.

Turning to `Cc1cc(CNC(=O)c2cc(-n3cnn(Cc4ccc(F)cc4)c3=O)n[nH]2)[nH]n1`, the melting point fell in the range of 239 to 241 °C.

Compound `CC(Oc1ncn(-c2ccc(C(F)(F)F)cc2)n1)C(N)=O` (centres undefined) displayed a melting point of 178 to 180 °C.

The compound `N[C@]1(C(=O)O)[C@H]2[C@@H](C[C@H]1OCc1ccccc1)[C@@H]2C(=O)O` had a melting point of over 250 °C.

`COC(C)=Nc1nc[nH]c1C#N` came in with a melting point of 147 to 149 °C.

Regarding `COc1cccc(CN(C)C)c1SCc1ccccc1`, the melting point lay within 69 to 70 °C.

In turn, `O=C1NC2(CCC(F)(F)CC2)C(O)=C1c1cc(-c2ccc(Cl)cc2)ccc1Cl` had a melting point of 156 °C.

Take `CN1CC=C(c2c[nH]c3ccc(OS(=O)(=O)c4ccccc4)cc23)CC1`: the melting point is 186 to 190 °C.

For the compound `CC(O)=C(C#N)C(=O)Nc1ccc(Br)cc1`, the melting point was in the range of 213 to 214 °C.

Compound `Nc1c(SSc2c(-c3ncon3)nn(-c3c(Cl)cc(C(F)(F)F)cc3Cl)c2N)c(-c2ncon2)nn1-c1c(Cl)cc(C(F)(F)F)cc1Cl` yielded a melting point of 226 to 228 °C.

In turn, `Cc1cc2oc(NC(=O)Nc3c(C)cccc3C)c(-c3ccccc3Cl)c2cc1C` yielded a melting point of 252 to 254 °C.

`Cc1cc(-c2cc3c(cc2F)c(=O)c(C(=O)O)cn3C2CC2)cc(C)n1`: the melting point lay within 300 to 302 °C.

In turn, `COC(=O)C[C@@H](CI)O[Si](c1ccccc1)(c1ccccc1)C(C)(C)C` showed a melting point of 84 to 88 °C.

`O=c1[nH]c(=O)n(CCCCl)c2ccccc12`: the melting point was in the range of 183 to 184 °C.

`CC(C)(C)NC(=O)Nc1nc2nc(S(C)(=O)=O)ncc2cc1-c1c(Cl)cccc1Cl` showed a melting point of 138 to 140 °C.

`CC(C)N1C(=O)NC(c2ccc3c(c2)OCO3)c2cc3c(cc21)OCO3` (centres undefined) registered a melting point of 87 to 89 °C.

Regarding `Cc1ccc(CNc2ccc3c(C#N)cccc3n2)o1`, the melting point worked out at 102 °C.

`CCC12CCC3c4ccc(OC)cc4CCC3C1CC=C2OC(C)=O` (centres undefined) showed a melting point of 105 to 106 °C.

`CCCCc1nc2cccc(C(=O)OC)c2n1Cc1ccc(-c2cncnc2-c2nnn[nH]2)cc1` gave a melting point of 215 to 220 °C.

As to `CCCCC#CC(C)(O)c1ccc(-c2ccc(F)cc2)cc1` (centres undefined), the melting point came out at 62 °C.

Take `O=C(O)c1ccccc1-c1ccc(CNc2nc(Cl)nc3ccc(Cl)cc23)cc1`: the melting point lay within 210 to 240 °C.

Turning to `CN(CCCCCCCCNC(=O)NCCSCc1csc(NC(=N)N)n1)CCC(c1ccc(Cl)cc1)c1ccccn1` (centres undefined), the melting point was in the range of 135 to 140 °C.

In the case of `C[C@@H]1CN(CC(=O)Nc2ccccc2Cl)C[C@H](C)N1c1ncnc2c1ncn2C`, the melting point fell in the range of 221 to 222 °C.

The compound `O=S1OC(c2ccc(F)cc2)C(Cn2cncn2)(c2ccc(Cl)cc2Cl)O1` (centres undefined) yielded a melting point of 170 to 171 °C.

The compound `Cn1cc2c(n1)-c1cnn(C)c1CC2` displayed a melting point of 140 to 145 °C.

`Cc1sc2c(Cl)c(Cl)c(O)cc2c1C` returned a melting point of 143 to 144 °C.

(Values after a melting point compilation (Tetko et al.; mined from patent text by program, amines drawn as free bases though some values may be those of a salt).)
